{"source": "patent US20250051323A1", "about": "(RICHTER GEDEON NYRT., priority 2021, published 2025)", "key": {"[1]": {"target": "T1, human recombinant GABAA α5β3γ2 receptor (Homo sapiens (Human), UniProt P18507+P31644)", "T1 sequence (P31644 32-462)": "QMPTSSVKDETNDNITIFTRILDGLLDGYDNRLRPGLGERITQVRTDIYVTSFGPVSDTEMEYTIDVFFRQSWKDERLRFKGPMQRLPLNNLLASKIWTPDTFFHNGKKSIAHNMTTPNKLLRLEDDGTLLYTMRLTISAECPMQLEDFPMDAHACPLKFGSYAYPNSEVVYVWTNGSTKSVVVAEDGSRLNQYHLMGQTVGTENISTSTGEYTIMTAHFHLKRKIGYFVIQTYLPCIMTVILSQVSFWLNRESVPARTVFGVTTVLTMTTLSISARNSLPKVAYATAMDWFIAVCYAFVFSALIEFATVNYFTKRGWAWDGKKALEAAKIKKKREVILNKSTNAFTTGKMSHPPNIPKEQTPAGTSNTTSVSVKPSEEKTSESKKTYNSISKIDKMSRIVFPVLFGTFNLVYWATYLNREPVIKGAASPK", "T1 sequence (P28472 26-473 partner)": "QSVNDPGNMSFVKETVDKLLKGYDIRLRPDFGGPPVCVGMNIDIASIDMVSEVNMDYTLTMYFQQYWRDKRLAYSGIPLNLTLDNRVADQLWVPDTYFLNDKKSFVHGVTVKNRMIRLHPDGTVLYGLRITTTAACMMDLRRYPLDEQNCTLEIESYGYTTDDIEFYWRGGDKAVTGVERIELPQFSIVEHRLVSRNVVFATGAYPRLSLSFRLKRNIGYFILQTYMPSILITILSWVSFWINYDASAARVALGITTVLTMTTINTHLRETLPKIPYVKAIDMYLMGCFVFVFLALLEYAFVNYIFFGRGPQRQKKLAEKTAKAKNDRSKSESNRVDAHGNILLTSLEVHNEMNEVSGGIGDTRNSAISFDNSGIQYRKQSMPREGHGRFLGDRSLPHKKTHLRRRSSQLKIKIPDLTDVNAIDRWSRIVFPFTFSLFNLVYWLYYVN", "T1 sequence (P18507 40-475)": "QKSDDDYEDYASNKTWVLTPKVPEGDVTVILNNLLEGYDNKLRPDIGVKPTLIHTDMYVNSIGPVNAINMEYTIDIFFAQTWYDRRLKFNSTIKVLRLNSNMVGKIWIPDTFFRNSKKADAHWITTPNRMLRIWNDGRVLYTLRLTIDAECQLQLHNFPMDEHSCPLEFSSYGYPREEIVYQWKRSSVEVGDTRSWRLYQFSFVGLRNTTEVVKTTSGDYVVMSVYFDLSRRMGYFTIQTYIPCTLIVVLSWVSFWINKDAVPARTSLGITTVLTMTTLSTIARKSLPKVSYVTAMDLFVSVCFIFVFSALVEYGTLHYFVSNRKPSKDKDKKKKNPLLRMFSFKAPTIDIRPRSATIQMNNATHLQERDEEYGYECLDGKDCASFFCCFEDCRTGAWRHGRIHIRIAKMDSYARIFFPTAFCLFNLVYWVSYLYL", "assay": "Binding assay, [3H]Ro151788 displacement on HEK cell membranes", "conditions": "[3H]Ro151788 0.5 nM, 60 minutes at 4° C., Cheng-Prusoff; read-out: hGABAA α5 Ki", "procedure": "The GABAA α5β3γ2 protein used for the receptor binding assay was derived from membranes produced from HEK cells (Millipore CYL3073) expressing the human recombinant GABAA α5β3γ2 receptor. Cells were stored and cultured in-house according to the instructions provided by the vendor (Millipore). Cell pellet was homogenized in 10 times modified Krebs Henseleit buffer (membrane preparation buffer): 20 mM Tris, 120 mM NaCl, 100 mM KCl, 25 mM CaCl2 and 25 mM MgCl2 pH=7.4 at 4° C. using Ultra Turrax (Janke&Kunkel) maximal speed for 15 seconds. The homogenate was centrifuged at 40,000 g for 30 minutes at 4° C. Supernatant was discarded and the resulting pellet was washed in membrane preparation buffer. Pellet was resuspended in membrane preparation buffer and aliquots of 1.4 mL ampules were stored at −70° C. until use.\nReceptor binding assays were performed in 96-well format in deep-well plates. For each 96-well plate one ampule of membrane homogenate was thawed and diluted in binding buffer (50 mM Tris pH=7.4, 100 mM KCl) and 200 μL was dispensed into each well. Radioligand [^3H]Ro151788 (Perkin Elmer: NET757250UC) was prepared in binding buffer and added to each well in 50 μL volume to give final concentration of 0.5 nM. Test compounds in suitable concentration(s) were added in additional 50 μL. The final assay volume was 300 μL. Incubation was carried out for 60 minutes at 4° C. For non-specific binding 10 μM unlabeled diazepam was used. […] The plate was dried at 40° C. for an hour and 40 μL Microscint (Perkin Elmer) scintillation cocktail was added to each well. The plate was read in Microbeta (Perkin Elmer).\nThe specific radioligand binding (SB) was defined as the difference between total binding (Tot) and the non-specific binding (NSB). Results are expressed as a percent inhibition of specific binding obtained in the presence of compound of interest.\nFor IC50 and Ki determination a minimum of six drug concentrations in triplicate were used. […] Ki values (i.e., inhibition constants) were calculated using the Cheng-Prusoff equation Ki=IC5O/[1+(L/KD)], where [L] is the radioligand concentration and KD the affinity of the labelled ligand for receptor. KD was determined from the Saturation analyses."}, "[2]": {"target": "T1, human recombinant GABAA α5β3γ2 receptor", "assay": "Functional assay, QPatch automated whole-cell patch clamp, modulation of GABA-evoked current", "assay_type": "cell-based", "conditions": "read-out: hGABAA α5 efficacy (percentage modulation of GABA-evoked peak current)", "procedure": "Human HEK293 cell lines expressing GABAAα5β3γ2 receptors were used in functional assays using the QPatch automated patch clamp system.\nHEK293 cell lines stably expressing human recombinant GABAA α5β3γ2 receptor subunits (Millipore, CYL3053) were cultured in DMEM supplemented with 10% FBS (Gibco), passed two times per week and plated on Petri dishes previously coated with poly-d-lysine.\nAutomated whole-cell patch clamp recordings were made from cells 2-4 days after plating.\nInward currents were evoked at a holding potential of −80 mV by 3-s-long applications of the control agonist GABA at 1 μM at 2-4-min intervals first in concentration-matched DMSO (0.1 or 0.3%) control solution for five times, then in the presence of the test compound for four times, finally in control solution again for three times (wash-out). At the end of the experiment 100 μM GABA was applied to saturate the GABA-response and to assess the efficacy of the control GABA application. Current signals were low-pass filtered at 100 Hz and recorded at a sampling rate of 1 kHz.\nThe percentage modulation was calculated from the comparison of GABA-evoked peak current amplitudes in the presence and absence of the test compound."}, "[3]": {"conditions": "test compound 1 μM, GABA 1 μM, holding potential −80 mV"}}, "note": "Structures can show the parent of a compound that is named as a salt. Where two headings read alike, the source gives them in different places."}
{"smiles": "Cc1ccc(-n2nnc(C)c2COc2cc3c(cn2)CN(C2CCOC2)CC3)cn1", "note": "(racemic) [Example 29, 6-{[4-methyl-1-(6-methylpyridin-3-yl)-1H-1,2,3-triazol-5-yl]methoxy}-2-(oxolan-3-yl)-1,2,3,4-tetrahydro-2,7-naphthyridine]", "values": [{"measurement": "Ki", "setting": "[1]", "value": 29.7, "unit": "nM"}, {"measurement": "activation at 1 µM", "setting": "[2]; [3]", "value": 102, "unit": "%"}]}
{"smiles": "Cc1ccc(-n2nnc(C)c2COc2cc3c(cn2)CN([C@@H]2CCOC2)CC3)cn1", "note": "(single isomer, unassigned) [Example 38, 6-{[4-methyl-1-(6-methylpyridin-3-yl)-1H-1,2,3-triazol-5-yl]methoxy}-2-[(3S)-oxolan-3-yl]-1,2,3,4-tetrahydro-2,7-naphthyridine or enantiomer, tartarate salt]", "values": [{"measurement": "Ki", "setting": "[1]", "value": 20.9, "unit": "nM"}]}
{"smiles": "Cc1ccc(-n2nnc(C)c2COc2cc3c(cn2)CN([C@H]2CCOC2)CC3)cn1", "note": "(single isomer, unassigned) [Example 39, 6-{[4-methyl-1-(6-methylpyridin-3-yl)-1H-1,2,3-triazol-5-yl]methoxy}-2-[(3R)-oxolan-3-yl]-1,2,3,4-tetrahydro-2,7-naphthyridine or enantiomer, tartarate salt]", "values": [{"measurement": "Ki", "setting": "[1]", "value": 21.4, "unit": "nM"}]}
{"smiles": "Cc1ccc(-c2noc(C)c2COc2cc3c(cn2)CNCC3)cn1", "note": "[Example 1, 6-{[5-methyl-3-(6-methylpyridin-3-yl)-1,2-oxazol-4-yl]methoxy}-1,2,3,4-tetrahydro-2,7-naphthyridine trifluoroacetic acid salt]", "values": [{"measurement": "Ki", "setting": "[1]", "value": 3.9, "unit": "nM"}, {"measurement": "activation at 1 µM", "setting": "[2]", "value": 155, "unit": "%"}]}
{"smiles": "Cc1onc(-c2ccc(C(F)(F)F)nc2)c1COc1cc2c(cn1)CNCC2", "note": "[Example 2, 6-({5-methyl-3-[6-(trifluoromethyl)pyridin-3-yl]-1,2-oxazol-4-yl}methoxy)-1,2,3,4-tetrahydro-2,7-naphthyridine trifluoroacetic acid salt]", "values": [{"measurement": "Ki", "setting": "[1]", "value": 37, "unit": "nM"}, {"measurement": "activation at 1 µM", "setting": "[2]", "value": 100, "unit": "%"}]}
{"smiles": "Cc1ccc(-c2noc(C)c2COc2cc3c(cn2)CN(C)CC3)cn1", "note": "[Example 3, 2-methyl-6-{[5-methyl-3-(6-methylpyridin-3-yl)-1,2-oxazol-4-yl]methoxy}-1,2,3,4-tetrahydro-2,7-naphthyridine]", "values": [{"measurement": "Ki", "setting": "[1]", "value": 4.2, "unit": "nM"}]}
{"smiles": "Cc1ccc(-c2noc(C)c2COc2cc3c(cn2)CN(CC2CCC2)CC3)cn1", "note": "[Example 5, 2-(cyclobutylmethyl)-6-{[5-methyl-3-(6-methylpyridin-3-yl)-1,2-oxazol-4-yl]methoxy}-1,2,3,4-tetrahydro-2,7-naphthyridine]", "values": [{"measurement": "Ki", "setting": "[1]", "value": 7.4, "unit": "nM"}]}
{"smiles": "Cc1ccc(-c2noc(C)c2COc2cc3c(cn2)CN(C2CCCC2)CC3)cn1", "note": "[Example 6, 2-cyclopentyl-6-{[5-methyl-3-(6-methylpyridin-3-yl)-1,2-oxazol-4-yl]methoxy}-1,2,3,4-tetrahydro-2,7-naphthyridine]", "values": [{"measurement": "Ki", "setting": "[1]", "value": 8.4, "unit": "nM"}]}
{"smiles": "Cc1onc(-c2ccc(C(F)(F)F)nc2)c1COc1cc2c(cn1)CN(C1CCOCC1)CC2", "note": "[Example 7, 6-({5-methyl-3-[6-(trifluoromethyl)pyridin-3-yl]-1,2-oxazol-4-yl}methoxy)-2-(oxan-4-yl)-1,2,3,4-tetrahydro-2,7-naphthyridine]", "values": [{"measurement": "Ki", "setting": "[1]", "value": 29.3, "unit": "nM"}, {"measurement": "activation at 1 µM", "setting": "[2]; [3]", "value": 125, "unit": "%"}]}
{"smiles": "Cc1onc(-c2ccc(C(F)(F)F)nc2)c1COc1cc2c(cn1)CN(C1CCOC1)CC2", "note": "(stereo not drawn) [Example 8, 6-({5-methyl-3-[6-(trifluoromethyl)pyridin-3-yl]-1,2-oxazol-4-yl}methoxy)-2-(oxolan-3-yl)-1,2,3,4-tetrahydro-2,7-naphthyridine]", "values": [{"measurement": "Ki", "setting": "[1]", "value": 11.2, "unit": "nM"}, {"measurement": "activation at 1 µM", "setting": "[2]; [3]", "value": 133, "unit": "%"}]}
{"smiles": "Cc1ccc(-c2noc(C)c2COc2cc3c(cn2)CN(C2CCOC2)CC3)cn1", "note": "(stereo not drawn) [Example 9, 6-{[5-methyl-3-(6-methylpyridin-3-yl)-1,2-oxazol-4-yl]methoxy}-2-(oxolan-3-yl)-1,2,3,4-tetrahydro-2,7-naphthyridine]", "values": [{"measurement": "Ki", "setting": "[1]", "value": 4.9, "unit": "nM"}, {"measurement": "activation at 1 µM", "setting": "[2]; [3]", "value": 106, "unit": "%"}]}
{"smiles": "Cc1ccc(-c2noc(C)c2COc2cc3c(cn2)CN(C2COC2)CC3)cn1", "note": "[Example 10, 6-{[5-methyl-3-(6-methylpyridin-3-yl)-1,2-oxazol-4-yl]methoxy}-2-(oxetan-3-yl)-1,2,3,4-tetrahydro-2,7-naphthyridine]", "values": [{"measurement": "Ki", "setting": "[1]", "value": 4.5, "unit": "nM"}, {"measurement": "activation at 1 µM", "setting": "[2]; [3]", "value": 131, "unit": "%"}]}
{"smiles": "Cc1onc(-c2ccc(C(F)(F)F)nc2)c1COc1cc2c(cn1)CN(C(C)CS(C)(=O)=O)CC2", "note": "(stereo not drawn) [Example 12, 2-(1-methanesulfonylpropan-2-yl)-6-({5-methyl-3-[6-(trifluoromethyl)pyridin-3-yl]-1,2-oxazol-4-yl}methoxy)-1,2,3,4-tetrahydro-2,7-naphthyridine]", "values": [{"measurement": "Ki", "setting": "[1]", "value": 28.2, "unit": "nM"}]}
{"smiles": "Cc1onc(-c2ccc(C(F)(F)F)nc2)c1COc1cc2c(nn1)CN(C)CC2", "note": "[Example 17]", "values": [{"measurement": "Ki", "setting": "[1]", "value": 17.6, "unit": "nM"}]}
{"smiles": "Cc1nnn(-c2ccc(C(F)F)nc2)c1COc1cc2c(cn1)CNCC2", "note": "[Example 23, 6-({1-[6-(difluoromethyl)pyridin-3-yl]-4-methyl-1H-1,2,3-triazol-5-yl}methoxy)-1,2,3,4-tetrahydro-2,7-naphthyridine]", "values": [{"measurement": "Ki", "setting": "[1]", "value": 7.3, "unit": "nM"}]}
{"smiles": "Cc1nnn(-c2ccc(C(F)(F)F)nc2)c1COc1cc2c(cn1)CN(C(C)C)CC2", "note": "[Example 26, 6-({4-methyl-1-[6-(trifluoromethyl)pyridin-3-yl]-1H-1,2,3-triazol-5-yl}methoxy)-2-(propan-2-yl)-1,2,3,4-tetrahydro-2,7-naphthyridine]", "values": [{"measurement": "Ki", "setting": "[1]", "value": 93.8, "unit": "nM"}]}
{"smiles": "Cc1nnn(-c2ccc(C(F)(F)F)nc2)c1COc1cc2c(cn1)CN(C)CC2", "note": "[Example 27, 2-methyl-6-({4-methyl-1-[6-(trifluoromethyl)pyridin-3-yl]-1H-1,2,3-triazol-5-yl}methoxy)-1,2,3,4-tetrahydro-2,7-naphthyridine]", "values": [{"measurement": "Ki", "setting": "[1]", "value": 63.2, "unit": "nM"}]}
{"smiles": "Cc1nnn(-c2ccc(C(F)F)nc2)c1COc1cc2c(cn1)CN(C(C)C)CC2", "note": "[Example 28, 6-({1-[6-(difluoromethyl)pyridin-3-yl]-4-methyl-1H-1,2,3-triazol-5-yl}methoxy)-2-(propan-2-yl)-1,2,3,4-tetrahydro-2,7-naphthyridine]", "values": [{"measurement": "Ki", "setting": "[1]", "value": 5.9, "unit": "nM"}]}
{"smiles": "Cc1nnn(-c2ccc(C(F)(F)F)nc2)c1COc1cc2c(cn1)CN(C1CCOCC1)CC2", "note": "[Example 35, 6-({4-methyl-1-[6-(trifluoromethyl)pyridin-3-yl]-1H-1,2,3-triazol-5-yl}methoxy)-2-(oxan-4-yl)-1,2,3,4-tetrahydro-2,7-naphthyridine]", "values": [{"measurement": "Ki", "setting": "[1]", "value": 88.8, "unit": "nM"}]}
{"smiles": "Cc1nnn(-c2ccc(C(F)(F)F)nc2)c1COc1cc2c(cn1)CN(c1cccnc1)CC2", "note": "[Example 37, 6-({4-methyl-1-[6-(trifluoromethyl)pyridin-3-yl]-1H-1,2,3-triazol-5-yl}methoxy)-2-(pyridin-3-yl)-1,2,3,4-tetrahydro-2,7-naphthyridine napadysilate salt]", "values": [{"measurement": "activation at 1 µM", "setting": "[2]; [3]", "value": 53, "unit": "%"}]}
{"smiles": "COc1ccc(-n2nnc(C)c2COc2cc3c(cn2)CN(C2CCOCC2)CC3)cn1", "note": "[Example 40, 6-{[1-(6-methoxypyridin-3-yl)-4-methyl-1H-1,2,3-triazol-5-yl]methoxy}-2-(oxan-4-yl)-1,2,3,4-tetrahydro-2,7-naphthyridine heminapadisylate salt]", "values": [{"measurement": "activation at 1 µM", "setting": "[2]; [3]", "value": 86, "unit": "%"}]}
{"smiles": "Cc1ccc(-n2nnc(C)c2COc2cc3c(cn2)CN(C2(C(C)C)COC2)CC3)cn1", "note": "[Example 42, 6-{[4-methyl-1-(6-methylpyridin-3-yl)-1H-1,2,3-triazol-5-yl]methoxyl}-2-[3-(propan-2-yl)oxetan-3-yl]-1,2,3,4-tetrahydro-2,7-naphthyridine napadisylate salt]", "values": [{"measurement": "activation at 1 µM", "setting": "[2]; [3]", "value": 99, "unit": "%"}]}
{"smiles": "CCC1(N2CCc3cc(OCc4c(C)nnn4-c4ccc(C)nc4)ncc3C2)COC1", "note": "[Example 43, 2-(3-ethyloxetan-3-yl)-6-{[4-methyl-1-(6-methylpyridin-3-yl)-1H-1,2,3-triazol-5-yl]methoxy}-1,2,3,4-tetrahydro-2,7-naphthyridine napadisylate salt]", "values": [{"measurement": "activation at 1 µM", "setting": "[2]; [3]", "value": 85, "unit": "%"}]}
